Consider two substances from patent US8658599B2, “Peptide for the prophylactic or therapeutic treatment of skin tumors in initial stages” (Digna Biotech, S.L., priority 2009, dated 2014).

For one series, the target named is T1, TGF-β1 (Homo sapiens, UniProt P01137).
T1 construct: host or cells: My-1-Lu cell line (so in the source)
As to conditions: shown previously, WO 00/31135; cited from earlier work.

In series [1] the test system is skin tumors in mice initiated with DMBA. Description: Tumor-promoting effect: TPA replaced by disitertide cream in DMBA-initiated mice. The format is in vivo, Swiss albino mice. As to conditions: group 2. On the procedure: The tumors were induced on the shaved dorsal skin of mice aged 6-8 weeks through a single topical application of DMBA (32 μg in 200 μl of acetone), followed by treatment twice a week with 12.5 μg of TPA in 200 μl of acetone (10^−4 M) for 12 weeks. In addition, groups of mice were treated with a topical formulation in the form of cream that contained disitertide or not, as specified below. Each week the number of tumors bigger than 2 mm in diameter were recorded in each mouse. At the end of the experiment, the animals were anesthetized and killed (32 weeks after the initiation with DMBA), and the tumors were fixed in 10% formaldehyde and embedded in paraffin for the histological studies.
(§1) In order to test the possible tumor-promoting effect of disitertide, TPA was replaced by a treatment with a topical formulation cream containing disitertide (group 2, consisting of 5 animals) or with vehicle only (group 1, consisting of 5 mice) during the promotion phase of chemical carcinogenesis. Similarly, the possible carcinogenic activity of disitertide was analyzed in a group of 5 mice by repeated applications of disitertide every 2 days for 23 weeks. Since papillomas appear at around 7-8 weeks post-initiation, mice initiated with DMBA and promoted with TPA were further treated with disitertide every 2 days for 4 and 12 weeks (groups 5 and 6, respectively, 10 animals each), in order to test whether disitertide could prevent skin carcinogenesis. Treatment with disitertide started in the same week in which mice were initiated with DMBA (week 0), and applications with this and TPA were performed on alternate days. As a control, a group of mice (group 4, consisting of 5 animals) were treated with vehicle only (control cream) for 12 weeks. Finally, a group of animals with tumors (group 7, consisting of 10 animals) were treated with disitertide every 2 days for 20 weeks from week 12 to week 32 after initiation with DMBA. This group of mice was included in order to test a possible anti-tumor effect of the peptide. Disitertide was applied at a dose of 60 μg in 200 μl of the topical formulation as cream, except for mice of group 7 in which the dose of disitertide was increased up to 120 μg (in 400 μl of cream).

A further series concerns normal skin. The arrangement: species or system mice. As to conditions: mouse, in vivo. On the procedure:
as §1, with “Disitertide was applied at a dose of 60 μg in 200 μl of the topical formulation as cream, except for mice of group 7 in which the dose of disitertide was increased up to 120 μg (in 400 μl of cream).” left out

Where no end group is shown, it is not given here.

T1 sequence (P01137 279-390 limits assumed, species assumed): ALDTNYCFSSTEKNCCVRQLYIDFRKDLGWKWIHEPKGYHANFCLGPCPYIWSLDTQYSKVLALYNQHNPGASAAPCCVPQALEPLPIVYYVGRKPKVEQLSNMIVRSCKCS

“P54: mammal homologue peptide of disitertide, SEQ ID NO: 2, amino acids 731-742 of rat type III receptor of TGF-β1 (TSLDATMIWTMM; P54 peptide)”: the “Capacity to act as TGF-β1 inhibitor” value in the series with TGF-β1 is reported as “act as TGF-β1 inhibitors”.
Turning to TSLDASIIWAMMQN [disitertide], the “Mean number of tumors per mouse at week 10 post-initiation” value in series [1] (DMBA initiation, disitertide cream as promoter instead of TPA, 12 weeks, tumors >2 mm, week 10) was determined as 0.0. The “Mean number of tumors per mouse at week 14 post-initiation” value in series [1] (DMBA initiation, disitertide cream as promoter instead of TPA, 12 weeks, tumors >2 mm, week 14) is reported as 0.0. Also, in series [1] (DMBA initiation, disitertide cream as promoter instead of TPA, 12 weeks, tumors >2 mm, week 25), the “Mean number of tumors per mouse at week 25 post-initiation” value was determined as 0.0. Further, the “Mean number of tumors per mouse at week 32 post-initiation” value in series [1] (DMBA initiation, disitertide cream as promoter instead of TPA, 12 weeks, tumors >2 mm, week 32) is 0.0. Moreover, the “Tumor induction when disitertide replaces TPA as promoter” value in series [1] (DMBA-initiated mice promoted with disitertide cream for 12 weeks) was “no tumors were induced”. Moreover, the “Effect on normal skin after repeated applications” value in the series on normal skin was “no deleterious effect on normal skin”.
